Earlier results in PubChem BioAssay AID1259409 (Chemical Carcinogenesis Research Information System (CCRIS), 2018).

Test system: rodent chemically induced tumor inhibition, incidence and multiplicity
Assay: CCRIS tumor inhibitor studies

NCCCC(N)(C(=O)O)C(F)F (stereo not drawn)
tumour outcome (control, treated, inhibition, significance) (Carcinogen: 1,2-DIMETHYLHYDRAZINE, 540-73-8, Dose [Inhibitor]: 0, 0.2% IN DRINKING WATER BEGINNING 1 D PRIOR TO CARCINOGEN TREATMENT AND CONTINUING FOR DURATION OF STUDY (STUDY DURATI, Route [Inhibitor]: ORAL, Species: RAT, Strain/Sex: SPRAGUE-DAWLEY/MALE, Target Tissue: Type of Lesion: DISTAL COLON: ADENOCARCINOMA, Dose [Carcinogen]: 20 MG/KG 1/WK FOR 20 WK, Promoter: NONE USED): 94%, 67%, 29%, p<0.01 | tumour outcome (control, treated, inhibition, significance) (Carcinogen: 7,12-DIMETHYLBENZ[A]ANTHRACENE, 57-97-6, Dose [Inhibitor]: 0.3 MG IN 0.2 ML ACETONE:ETHANOL:WATER (2:1:1, V/V) 1 HR AFTER EACH PROMOTER DOSE FOR 20 WK (STUDY DURATION: 20 WK), Route [Inhibitor]: DERMAL, Species: MOUSE, Strain/Sex: CD-1/FEMALE, Target Tissue: Type of Lesion: SKIN: PAPILLOMA, Dose [Carcinogen]: 0.2 UMOL IN 0.2 ML ACETONE ONCE, Promoter: 12-O-TETRADECANOYLPHORBOL-13-ACETATE, 16561-29-8): 97%, 61%, 37%, not calculated | tumour outcome (control, treated, inhibition, significance) (Carcinogen: 7,12-DIMETHYLBENZ[A]ANTHRACENE, 57-97-6, Dose [Inhibitor]: 0.3 MG IN 0.2 ML ACETONE:ETHANOL:WATER (2:1:1,V/V) 1 HR AFTER EACH PROMOTER DOSE FOR 20 WK (STUDY DURATION: 20 WK), Route [Inhibitor]: DERMAL, Species: MOUSE, Strain/Sex: CD-1/FEMALE, Target Tissue: Type of Lesion: SKIN: PAPILLOMA, Dose [Carcinogen]: 0.2 UMOL IN 0.2 ML ACETONE ONCE, Promoter: 12-O-TETRADECANOYLPHORBOL-13-ACETATE, 16561-29-8): 84%, 63%, 25%, not calculated | tumour outcome (control, treated, inhibition, significance) (Carcinogen: 7,12-DIMETHYLBENZ[A]ANTHRACENE, 57-97-6, Dose [Inhibitor]: 1% (W/V) IN DRINKING WATER 2 D PRIOR TO 1ST PROMOTER DOSE UNTIL THE END OF EXPERIMENT (STUDY DURATION: 20 WK), Route [Inhibitor]: ORAL, Species: MOUSE, Strain/Sex: CD-1/FEMALE, Target Tissue: Type of Lesion: SKIN: PAPILLOMA, Dose [Carcinogen]: 0.2 UMOL IN 0.2 ML ACETONE ONCE, Promoter: 12-O-TETRADECANOYLPHORBOL-13-ACETATE, 16561-29-8): 100%, 43%, 57%, not calculated | tumour outcome (control, treated, inhibition, significance) (Carcinogen: 7,12-DIMETHYLBENZ[A]ANTHRACENE, 57-97-6, Dose [Inhibitor]: 2% IN DRINKING WATER (AVERAGE DAILY INTAKE: 8.53 ML/MOUSE/D) FOR 18 WK (STUDY DURATION: 18 WK), Route [Inhibitor]: ORAL, Species: MOUSE, Strain/Sex: SENCAR/FEMALE, Target Tissue: Type of Lesion: SKIN: PAPILLOMA, Dose [Carcinogen]: 10 NMOL ONCE AT 7 WK OF AGE, Promoter: 12-O-TETRADECANOYLPHORBOL-13-ACETATE, 16561-29-8): 92%, 81%, 12%, not calculated | tumour outcome (control, treated, inhibition, significance) (Carcinogen: 7,12-DIMETHYLBENZ[A]ANTHRACENE, 57-97-6, Dose [Inhibitor]: 3 MG IN 0.2 ML ACETONE:ETHANOL:WATER (2:1:1, V/V) 1 HR AFTER EACH PROMOTER DOSE FOR 20 WK (STUDY DURATION: 20 WK), Route [Inhibitor]: DERMAL, Species: MOUSE, Strain/Sex: CD-1/FEMALE, Target Tissue: Type of Lesion: SKIN: PAPILLOMA, Dose [Carcinogen]: 0.2 UMOL IN 0.2 ML ACETONE ONCE, Promoter: 12-O-TETRADECANOYLPHORBOL-13-ACETATE, 16561-29-8): 68%, 47%, 31%, not calculated | tumour outcome (control, treated, inhibition, significance) (Carcinogen: 7,12-DIMETHYLBENZ[A]ANTHRACENE, 57-97-6, Dose [Inhibitor]: 5 MG, 2 HR PRIOR TO EACH BIWEEKLY PROMOTER DOSE FOR 18 WK (STUDY DURATION: 18 WK), Route [Inhibitor]: INTRAPERITONEAL, Species: MOUSE, Strain/Sex: SENCAR/FEMALE, Target Tissue: Type of Lesion: SKIN: PAPILLOMA, Dose [Carcinogen]: 10 NMOL AT 7 WK OF AGE ONCE 18 WK, Promoter: 12-O-TETRADECANOYLPHORBOL-13-ACETATE, 16561-29-8): 92%, 77%, 16%, not calculated | tumour outcome (control, treated, inhibition, significance) (Carcinogen: 7,12-DIMETHYLBENZ[A]ANTHRACENE, 57-97-6, Dose [Inhibitor]: 6 MG IN 0.9% NACL 1 HR AFTER EACH PROMOTER DOSE (STUDY DURATION: 20 WK), Route [Inhibitor]: INTRAPERITONEAL, Species: MOUSE, Strain/Sex: CD-1/FEMALE, Target Tissue: Type of Lesion: SKIN: PAPILLOMA, Dose [Carcinogen]: 0.2 UMOL IN 0.2 ML ACETONE ONCE, Promoter: 12-O-TETRADECANOYLPHORBOL-13-ACETATE, 16561-29-8): 83%, 63%, 24%, not calculated | tumour outcome (control, treated, inhibition, significance) (Carcinogen: 7,12-DIMETHYLBENZ[A]ANTHRACENE, 57-97-6, Dose [Inhibitor]: 18 MG IN 0.9% NACL 1 HR AFTER EACH PROMOTER DOSE (STUDY DURATION: 20 WK), Route [Inhibitor]: INTRAPERITONEAL, Species: MOUSE, Strain/Sex: CD-1/FEMALE, Target Tissue: Type of Lesion: SKIN: PAPILLOMA, Dose [Carcinogen]: 0.2 UMOL IN 0.2 ML ACETONE ONCE, Promoter: 12-O-TETRADECANOYLPHORBOL-13-ACETATE, 16561-29-8): 83%, 60%, 28%, not calculated | tumour outcome (control, treated, inhibition, significance) (Carcinogen: 7,12-DIMETHYLBENZ[A]ANTHRACENE, 57-97-6, Dose [Inhibitor]: 20 MG 2/WK OR 16 WK TOGETHER WITH EACH MEZEREIN TREATMENT BEGINNING 3 WK POST CARCINOGEN DOSE (STUDY DURATION: 18 WK), Route [Inhibitor]: INTRAPERITONEAL, Species: MOUSE, Strain/Sex: SENCAR/FEMALE, Target Tissue: Type of Lesion: SKIN: PAPILLOMA, Dose [Carcinogen]: 10 NMOL ONCE FOLLOWED ONE WK LATER BY PROMOTER, Promoter: 12-O-TETRADECANOYLPHORBOL-13-ACETATE, 16561-29-8, MEZERIN, 34807-41-5, Promoter: 12-O-TETRADECANOYLPHORBOL-13-ACETATE, 16561-29-8, MEZERIN, 34807-41-5): 78%, 45%, 42%, not calculated | tumour outcome (control, treated, inhibition, significance) (Carcinogen: 7,12-DIMETHYLBENZ[A]ANTHRACENE, 57-97-6, Dose [Inhibitor]: 20 MG 2/WK TOGETHER WITH EACH PROMOTER TREATMENT BEGINNING 1 WK POST CARCINOGEN DOSE (STUDY DURATION: 18 WK), Route [Inhibitor]: INTRAPERITONEAL, Species: MOUSE, Strain/Sex: SENCAR/FEMALE, Target Tissue: Type of Lesion: SKIN: PAPILLOMA, Dose [Carcinogen]: 10 NMOL ONCE, Promoter: 12-O-TETRADECANOYLPHORBOL-13-ACETATE, 16561-29-8, MEZERIN, 34807-41-5, Promoter: 12-O-TETRADECANOYLPHORBOL-13-ACETATE, 16561-29-8, MEZERIN, 34807-41-5): 78%, 78%, 0%, not significant | tumour outcome (control, treated, inhibition, significance) (Carcinogen: 7,12-DIMETHYLBENZ[A]ANTHRACENE, 57-97-6, Dose [Inhibitor]: 20 MG 2 HR PRIOR TO EACH BIWEEKLY PROMOTER DOSE FOR 18 WK (STUDY DURATION: 18 WK), Route [Inhibitor]: INTRAPERITONEAL, Species: MOUSE, Strain/Sex: SENCAR/FEMALE, Target Tissue: Type of Lesion: SKIN: PAPILLOMA, Dose [Carcinogen]: 10 NMOL ONCE AT 7 WK OF AGE, Promoter: 12-O-TETRADECANOYLPHORBOL-13-ACETATE, 16561-29-8): 92%, 84%, 9%, not calculated | tumour outcome (control, treated, inhibition, significance) (Carcinogen: BETA IRRADIATION, Dose [Inhibitor]: 0, 1% IN DRINKING WATER DURING IRRADIATION EXPOSURE (STUDY DURATION: 950 D), Route [Inhibitor]: ORAL, Species: MOUSE, Strain/Sex: ICR/FEMALE, Target Tissue: Type of Lesion: SKIN: TUMOR, Dose [Carcinogen]: 3 GY/MIN 3/WK UNTIL EMERGENCE OF TUMORS, Promoter: NONE USED): 100%, 100%, 0%, not significant
